Experimental data as given in patent US20150157588A1, “Pharmaceutical Composition Comprising Amino-Phenyl-Acetic Acid Octadec-(Z)-9-enyl Ester and Use Thereof for Treating Tumors” (Yeda Research and Development Co., Ltd., priority 2012, published 2015).

Tested on: anti-CD3-activated T cells
Assay: Microarray gene expression, T cells activated by anti-CD3 antibody
Type: cell-based, human
Conditions: for Fold change CCL7: 208075_s_at; for Fold change INDO: 210029_at; for Fold change RSAD2: 213797_at; for Fold change LYZ /// RFK: 213975_s_at; for Fold change CCL8: 214038_at; for Fold change CXCL5: 215101_s_at; for Fold change ANKRD12: 216563_at; for Fold change CCL2: 216598_s_at; for Fold change HIG2: 218507_at; for Fold change C1orf165: 219670_at; for Fold change IL1F9: 220322_at; for Fold change IL22: 221165_s_at; for Fold change PDE3B: 222330_at
Method: CD3 positive T cells were extracted from a healthy donor according to a standard protocol, and seeded in T cell medium including RPMI, 10% fetal calf serum, sodium pyruvate, L-Glutamine, and Penicillin/Streptomycin. Following an overnight incubation with medium, the cells were treated by incubating for 2 hours at 37° C. with amino-phenyl-acetic acid octadec-(Z)-9-enyl ester at a concentration of 10 micrograms/ml in a final volume of 10 ml in T-cell medium with or without 0.05% ethanol. After incubation, half the cells from each treatment were centrifuged and 2 ml of Tri-reagent (Sigma) were added to the pellet. The other half of the cells from each treatment were transferred to anti-CD3 antibody coated 24 well plates for an overnight incubation at 37° C. Coating plates with an anti-CD3 antibody was carried out by incubating with 2 micrograms/ml of OKT3 anti-CD3 antibody overnight at 4° C., washing three times with PBS and blocking with filtered 1% Bovine Serum Albumin for 1 hour. After activation with anti-CD3 antibody, cells were centrifuged and 2 ml of Tri-reagent were added to the pellet.
RNA was extracted from unstimulated cells and from cells activated with anti-CD3 according to standard protocols and used for hybridization with a Human Genome U133A 2.0 (Affymetrix, Catalogue number 900468), according to the manufacturer's instructions. The results of the hybridization were read by a GeneChip scanner 3000 (Affymetrix) and analyzed by QuantArray (GSI lumonics).
The effects of amino-phenyl-acetic acid octadec-(Z)-9-enyl ester in ethanol solution or in an aqueous vehicle (hereinafter termed “in PBS”) on gene expression in unstimulated T cells and T cells activated by anti-CD3 antibody were compared by microarray analysis.

[1] = anti-CD3-activated T cells, in ethanol solution vs in PBS
[2] = anti-CD3-activated T cells, in ethanol solution vs untreated
[3] = anti-CD3-activated T cells, in PBS vs untreated

Compound: CCCCCCCC/C=C\CCCCCCCCOC(=O)C(N)c1ccccc1 (centres unmarked) [amino-phenyl-acetic acid octadec-(Z)-9-enyl ester]
- Fold change CCL7 [1]: 2.01
- Fold change CCL7 [2]: 1.991
- Fold change NTRK1 (208605_s_at, anti-CD3-activated T cells, in ethanol solution vs untreated): 2.03
- Fold change TFPI2 (209277_at, anti-CD3-activated T cells, in ethanol solution vs in PBS): 2.53
- Fold change TFPI2 (209277_at, anti-CD3-activated T cells, in ethanol solution vs untreated): 3.32
- Fold change TFPI2 (209278_s_at, anti-CD3-activated T cells, in ethanol solution vs in PBS): 2.99
- Fold change TFPI2 (209278_s_at, anti-CD3-activated T cells, in ethanol solution vs untreated): 3.87
- Fold change CHI3L1 (209395_at, anti-CD3-activated T cells, in ethanol solution vs in PBS): 2.69
- Fold change CHI3L1 (209395_at, anti-CD3-activated T cells, in ethanol solution vs untreated): 3.40
- Fold change CHI3L1 (209396_s_at, anti-CD3-activated T cells, in ethanol solution vs in PBS): 2.15
- Fold change CHI3L1 (209396_s_at, anti-CD3-activated T cells, in ethanol solution vs untreated): 2.58
- Fold change INDO [1]: 2.08
- Fold change INDO [2]: 2.47
- Fold Change SPAG1 (210117_at, anti-CD3-activated T cells, in ethanol solution vs in PBS): −1.90
- Fold change IL1A (210118_s_at, anti-CD3-activated T cells, in ethanol solution vs untreated): 2.02
- Fold change PLA2G4A (210145_at, anti-CD3-activated T cells, in ethanol solution vs untreated): 2.00
- Fold Change LY9 (210370_s_at, anti-CD3-activated T cells, in ethanol solution vs in PBS): 2.25
- Fold change INHBA (210511_s_at, anti-CD3-activated T cells, in ethanol solution vs untreated): 1.96
- Fold change FPRL1 (210772_at, anti-CD3-activated T cells, in ethanol solution vs untreated): 2.00
- Fold change PLAUR (210845_s_at, anti-CD3-activated T cells, in ethanol solution vs in PBS): 2.01
- Fold change PLAUR (210845_s_at, anti-CD3-activated T cells, in ethanol solution vs untreated): 2.02
- Fold change LYST (210943_s_at, anti-CD3-activated T cells, in ethanol solution vs untreated): 2.45
- Fold change SERPINA1 (211429_s_at, anti-CD3-activated T cells, in ethanol solution vs untreated): 2.06
- Fold change IL8 (211506_s_at, anti-CD3-activated T cells, in ethanol solution vs untreated): 2.69
- Fold change PLAUR (211924_s_at, anti-CD3-activated T cells, in ethanol solution vs untreated): 1.91
- Fold Change MCM4 (212141_at, anti-CD3-activated T cells, in ethanol solution vs in PBS): −1.98
- Fold Change MCM4 (212142_at, anti-CD3-activated T cells, in ethanol solution vs in PBS): −2.80
- Fold change IL1RN (212657_s_at, anti-CD3-activated T cells, in ethanol solution vs untreated): 1.98
- Fold change IL1RN (212659_s_at, anti-CD3-activated T cells, in ethanol solution vs untreated): 1.90
- Fold change RSAD2 [1]: 3.11
- Fold change RSAD2 [2]: 2.28
- Fold change LYZ /// RFK [1]: 2.02
- Fold change LYZ /// RFK [2]: 2.00
- Fold change CCL8 [1]: 2.33
- Fold change CCL8 [2]: 2.23
- Fold change CXCL5 [3]: 1.995
- Fold change CXCL5 [2]: 2.31
- Fold change SOD2 (215223_s_at, anti-CD3-activated T cells, in ethanol solution vs untreated): 1.95
- Fold change SNX9 (215284_at, anti-CD3-activated T cells, in ethanol solution vs untreated): 2.44
- Fold change LYST (215415_s_at, anti-CD3-activated T cells, in ethanol solution vs untreated): 2.09
- Fold Change LY9 (215967_s_at, anti-CD3-activated T cells, in ethanol solution vs in PBS): 2.05
- Fold Change LY9 (215967_s_at, anti-CD3-activated T cells, in ethanol solution vs untreated): 2.2
- Fold change IL1RN (216243_s_at, anti-CD3-activated T cells, in ethanol solution vs untreated): 1.99
- Fold change ANKRD12 [3]: 1.94
- Fold change ANKRD12 [2]: 2.48
- Fold change probeset 216575_at [1]: 2.69
- Fold change probeset 216575_at [2]: 2.31
- Fold change CCL2 [1]: 5.27
- Fold change CCL2 [2]: 5.00
- Fold change SLC7A11 (217678_at, anti-CD3-activated T cells, in ethanol solution vs untreated): 1.92
- Fold Change TNS3 (217853_at, anti-CD3-activated T cells, in ethanol solution vs in PBS): 2.00
- Fold change FLJ20273 (218035_s_at, anti-CD3-activated T cells, in ethanol solution vs untreated): 2.17
- Fold change HIG2 [1]: −2.31
- Fold change HIG2 [2]: −2.17
- Fold Change DTL (218585_s_at, anti-CD3-activated T cells, in ethanol solution vs in PBS): −1.93
- Fold change ANKRD11 (219437_s_at, anti-CD3-activated T cells, in ethanol solution vs untreated): 2.84
- Fold change C1orf165 [1]: −2.22
- Fold change C1orf165 [2]: −2.29
- Fold change IL1F9 [1]: 2.74
- Fold change IL1F9 [2]: 3.10
- Fold change MCM10 (220651_s_at, anti-CD3-activated T cells, in ethanol solution vs untreated): −2.05
- Fold change IL22 [1]: −3.03
- Fold change IL22 [2]: −2.63
- Fold Change BNIP3L (221478_at, anti-CD3-activated T cells, in ethanol solution vs in PBS): −2.45
- Fold Change BNIP3L (221478_at, anti-CD3-activated T cells, in ethanol solution vs untreated): −2.28
- Fold Change BNIP3L (221479_s_at, anti-CD3-activated T cells, in ethanol solution vs in PBS): −2.00
- Fold Change GINS2 (221521_s_at, anti-CD3-activated T cells, in ethanol solution vs in PBS): −1.99
- Fold change GRSF1 (221917_s_at, anti-CD3-activated T cells, in PBS vs untreated): 1.92
- Fold change PDE3B [1]: 1.99
- Fold change PDE3B [2]: 1.97
- down-regulated genes (activated T cells, in PBS vs untreated): no down-regulated genes
